Experimental findings from US20160324884A1, “TREATMENT OF DIABETES WITH PENTACYCLIC TRITERPENOID SAPONIN COMPOUNDS FROM SZECHUAN MELANDIUM ROOT” (priority 2013, published 2016) are described below.

Entries after “also recorded” stand apart in the source; their conditions may differ.

The test system of assay [1] is KK^Ay mice. As to the kind of experiment: Hepatic and muscle glycogen in KK^Ay mice (Example 3). As to conditions: 2.0 mg/kg Sc. The format is in vivo. An excerpt: 60 KK^Ay mice were adaptively bred for 1 week, and then randomly assigned into 6 groups: Model group, Compound (1) group, Compound (2) group, Compound (3) group, Compound (4) group, and metformin group, 10 mice per group. 10 normal C57BL/6 mice were used for the control group. KK^Ay mice were in a high-fat diet, and the control normal mice were in a normal control diet. The control and model groups were hypodermically injected with sterile water, the 6 medicated groups mice were subcutaneously injected with […] Wacao saponins, (Compounds (1), (2), (3) and (4)) respectively, and the positive group was administered metformin by gavage. All mice were administrated at 9 am for 2 weeks and the administration volume is 10 ml/kg BW.
The body weight, food and water intake of each mouse was measured and recorded weekly throughout the course of the experiment. At the end of the experiment, collected the blood and separated serum, fasting blood glucose, insulin levels and insulin sensitivity index (ISI) were measured or calculated in each group. Liver, skeletal muscles of mice in each group were taken and weighed for detecting glycogen levels of the hepatic and muscles after mice being killed.
Compound (1), (2), (3) and (4) were respectively dissolved into sterile water, and sterilized with filtration for Sc. to the medication groups. The metformin was dissolved into sterile water for lg. to the positive control group. Control and model groups animals were injected with sterile water (10 ml/kg BW), Sc. All the animals were treated daily at 9 am for 2 weeks (14 days).
Blood detection: Blood glucose was measured weekly. Overnight fasting glycemia level was measured with One Touch ULTRA Glucometer for the tail blood test. At the end of the experiment, blood serum was collected for measuring levels of fasting blood glucose and insulin, and the insulin sensitivity index (ISI) was calculated. At the same time, hepatic tissues and skeletal muscles of mice were taken out to determine levels of hepatic and muscle glycogen by detection kits.

Assay [2] has as its system T2DM rats. As to the kind of experiment: Glycosylated serum protein (GSP) and liver and muscle glycogen in T2DM rats (Example 5). Type of assay: in vivo, SD rats. As to conditions: 4.0 mg/kg Sc vs glucobay 20 mg/kg lg. From the text:
(§1) 50 SD rats were adaptively bred for 1 week, and then randomly assigned into 5 groups: The control group, model group, Compound (1) group, Compound (2) group and glucobay group (the positive group), 10 rats per group. All the animals were in a standard laboratory diet. Control and model group animals were hypodermically injected with sterile water, test compound treatment groups were subcutaneously injected with the Compounds (1) and (2), and the positive group was administrated glucobay solution by gavage. All the animals were administrated at 9 am for 2 weeks, and the dose volume is 10 ml/kg BW.
(§2) The Compounds (1) and (2) were dissolved into sterile water, and sterilized with filtration, Sc. Glucobay was dissolved into sterile water, lg. Animals in the control and model groups were injected with sterile water (10 ml/kg BW), Sc. All the animals were treated at 9 am for 2 weeks (14 days).
All rats except the control group were administrated intragastrically with the high-fat emulsion (10 ml/kg) and weighed the body weight weekly. After weeks of administration, rats were intraperitoneally injected with streptozotocin (STZ, dissolved in citric acid-citrate sodium solution, pH 4.2, freshly prepared and used instantly, and store away from light) (30mg/kg). 4 days later, blood glucose level in rats was measured by tail blood test. […]

The subject of assay [3] is normal ICR mice. As to the kind of experiment: Glycemia in normal ICR mice (Example 4). The format is in vivo. As to conditions: 2.0 mg/kg Sc, vs control group. From the text:
40 male ICR mice (20-22g, License NO. SCXK (BJ) 2011-0004, Beijing SPF Experimental Animal Technology Co. Ltd.) were adaptively bred for one week, and then used in the following experiment.
Animals were housed individually in wood-chip-bedded plastic cages and fed the standard laboratory chow. All the animals had ad libitum access to food and water.
40 ICR mice were adaptively bred for 1 week, and then randomly assigned into 4 groups: Model, Compound (1), Compound (2) and metformin group, 10 mice per group. All the animals were fed with normal food. Mice in the control group were hypodermically injected with sterile water. The treated groups were subcutaneously injected with Compounds (1) and (2), respectively. And the positive group was administrated metformin by gavage. All the animals were administrated at 9 am for 2 weeks, and the dose volume is 10 ml/kg BW.
Compound (1) and (2) were respectively dissolved into sterile water, and sterilized with filtration for Sc. The metformin was dissolved into sterile water for lg. to the positive control group. Mice in the control group were injected with sterile water (10 ml/kg BW), Sc. All the animals were treated at 9 am for 2 weeks (14 days).
Blood detection: Blood glucose was measured weekly. Overnight fasting glycemia was measured by One Touch ULTRA Glucometer (LifeScan Johnson and Johnson, USA) for the tail blood test.
End of the experiment: After mice being administrated for 2 weeks (14 days), the experiment was terminated.

Assay [4] concerns T2DM rats. The assay is described as follows: Fasting glycemia in T2DM model rats (high-fat emulsion + STZ, Example 5). The format is in vivo, SD rats.
Excerpt: 50 male SD rats (180-200 g, License NO. SCXK (BJ) 2011-0004, Beijing SPF Experimental Animal Technology Co. Ltd.) were adaptively bred for 1 week, and then used in the pharmacological experiment.
Animals were housed individually in wood-chip-bedded plastic cages and fed a standard laboratory chow. All the animals had ad libitum access to food and water.
as §1, §2
All rats except the control group were administrated intragastrically with the high-fat emulsion (10 ml/kg) and weighed the body weight weekly. After weeks of administration, rats were intraperitoneally injected with streptozotocin (STZ, dissolved in citric acid-citrate sodium solution, pH 4.2, freshly prepared and used instantly, and store away from light) (30mg/kg). 4 days later, blood glucose level in rats was measured by tail blood test. Diabetes was defined as fasting blood glucose level>11.1 mmol/Lin in this experiment.
The blood glucose level was measured before and after administration of the treatment compounds for 2 weeks, respectively. The animals were fasted overnight and tail blood samples were taken. Fasting glycemia was measured by using One Touch ULTRA Glucometer or kits.

Regarding `CC(=O)OC1C(OC(=O)/C=C/c2ccc(C)cc2)C(C)OC(OC(=O)[C@]23CCC(C)(C)C[C@H]2C2C=C[C@@H]4[C@@]5(C)CC[C@H](OC6OC(C(=O)O)C(O)C(OC7OCC(O)C(O)C7O)C6OC6OC(CO)C(O)C(O)C6O)[C@@](C)(C=O)[C@@H]5CC[C@@]4(C)[C@]2(C)C[C@H]3O)C1OC1OC(C)C(O)C(O)C1O` (stereo partly shown) [Compound (1), sinocrassuloside VI], the “enhancement of glycogen storage” value in assay [1] (2 weeks, comparison among compounds and with metformin, 2 mg/kg) is “strongest activity of the function; also recorded: almost comparable to metformin”. For the same compound, the muscle glycogen level entry in assay [1] (after 2 weeks, vs model group) is on record as “stronger efficacy in raising levels muscle glycogen”. Besides, the “effect on glycogen levels and GSP levels compared with glucobay” value in assay [2] was “better effect on up-regulating of glycogen levels and down-regulating of GSP levels; also recorded: superior to that of glucobay; also recorded: stronger than glucobay”. Further, the glycemia level entry in assay [3] (after 1 week) is listed as “no significant difference was found except the Compound (1) group (p<0.05, vs. control group)”; in assay [3] (after 2 weeks) it was “decreased much obviously”; in assay [4] (4.0 mg/kg Sc, after 2 weeks, vs model group), “significantly decreased”. Moreover, in assay [4] (4.0 mg/kg Sc vs glucobay 20 mg/kg lg, 2 weeks), the “anti-hyperglycemia efficacy compared with glucobay” value was “much stronger than that of the glucobay”.
